Reference: ChEMBL document CHEMBL5512641, “Evaluation of novel 2-(quinoline-2-ylthio)acetamide derivatives linked to diphenyl-imidazole as α-glucosidase inhibitors: Insights from in silico, in vitro, and in vivo studies on their anti-diabetic properties” (Eur J Med Chem, 2024)
Active and inactive are the calls of the source. The calls are words filed in the database; no cut-off is given here.

Assays:
Alpha-glucosidase [1] = target: T1, Alpha-glucosidase (Saccharomyces cerevisiae S288c, UniProt P53341+P38158+P07265); assay: Inhibition of Saccharomyces cerevisiae alpha-glucosidase using p-nitrophenyl-alpha-D-glucopyranoside as substrate measured after 20 mins by spectrophotometer; type: protein assay
Alpha-glucosidase [2] = target: T1, Alpha-glucosidase; assay: Uncompetitive inhibition of Saccharomyces cerevisiae alpha-glucosidase using varying concentrations of p-nitrophenyl-alpha-D-glucopyranoside as substrate by Lineweaver-Burk plot analysis; type: protein assay
Rattus norvegicus [3] = assay: Antidiabetic activity in 16 hrs fasted high fat diet/streptozotocin induced diabetic Wistar albino rat model assessed as reduction in blood glucose level at 50 mg/kg, po pretreated for 30 mins followed by glucose administration and measured after 30 to 120 mins by oral glucose tolerance test; type: functional, organism-based; details: time […]
Rattus norvegicus [4] = assay: Antidiabetic activity in high fat diet/streptozotocin induced diabetic Wistar albino rat model assessed as increase in body weight at 50 mg/kg, po administered once daily and measured for 28 days; type: functional, organism-based; details: time 28.0 day
Rattus norvegicus [5] = assay: Antidiabetic activity in high fat diet/streptozotocin induced diabetic Wistar albino rat model assessed as reduction in blood glucose level at 50 mg/kg, po administered once daily and measured on day 28 using overnight fasted rat blood by automatic blood glucose meter; type: functional; details: time 28 day
Rattus norvegicus [6] = assay: Antidiabetic activity in high fat diet/streptozotocin induced diabetic rat Wistar albino model assessed as reduction in blood glucose level at 50 mg/kg, po administered once daily and measured on day 14 using overnight fasted rat blood by automatic blood glucose meter; type: functional, organism-based; details: time 14.0 day
Alpha-glucosidase [7] = target: T1, Alpha-glucosidase; assay: Competitive inhibition of Saccharomyces cerevisiae alpha-glucosidase using varying concentrations of p-nitrophenyl-alpha-D-glucopyranoside as substrate by Lineweaver-Burk plot analysis; type: protein assay
[8] = Acute toxicity in male Wistar albino rat assessed as convulsions at 250 to 1000 mg/kg, po administered via gastric gavage and measured daily for 2 weeks; type: organism-based; details: in vivo, 336 h, dose 250-1000 mg/kg
[9] = Acute toxicity in male Wistar albino rat assessed as tremors at 250 to 1000 mg/kg, po administered via gastric gavage and measured daily for 2 weeks; type: organism-based; details: in vivo, 336 h, dose 250-1000 mg/kg
[10] = Acute toxicity in male Wistar albino rat assessed as salivation at 250 to 1000 mg/kg, po administered via gastric gavage and measured daily for 2 weeks; type: organism-based; details: in vivo, 336 h, dose 250-1000 mg/kg
Rattus norvegicus [11] = assay: Antidiabetic activity in high fat diet/streptozotocin induced diabetic Wistar albino rat model assessed as reduction in blood glucose level at 20 mg/kg, po administered once daily and measured on day 28 using overnight fasted rat blood by automatic blood glucose meter; type: functional; details: time 28 day
Rattus norvegicus [12] = assay: Antidiabetic activity in high fat diet/streptozotocin induced diabetic Wistar albino rat model assessed as reduction in blood glucose level at 10 to 50 mg/kg, po administered once daily and measured on day 7 using overnight fasted rat blood by automatic blood glucose meter; type: functional, organism-based; details: dose 10-50 mg/kg, time 7.0 day
[13] = Acute toxicity in male Wistar albino rat assessed as animal death at 250 to 1000 mg/kg, po administered via gastric gavage and measured daily for 72 hrs to 2 weeks; type: organism-based; details: in vivo, dose lower 250 mg/kg, time lower 3 day, dose upper 1000 mg/kg, time upper 14 day
Rattus norvegicus [14] = assay: Antidiabetic activity in 16 hrs fasted high fat diet/streptozotocin induced diabetic Wistar albino rat model assessed as reduction in blood glucose level at 10 to 50 mg/kg, po pretreated for 30 mins followed by glucose administration and measured immediately by oral glucose tolerance test; type: functional, organism-based; details: dose 10-50 mg/kg
Rattus norvegicus [15] = assay: Antidiabetic activity in high fat diet/streptozotocin induced diabetic Wistar albino rat model assessed as reduction in blood glucose level at 10 mg/kg, po administered once daily and measured on day 28 using overnight fasted rat blood by automatic blood glucose meter; type: functional; details: time 28 day
[16] = Acute toxicity in male Wistar albino rat assessed as symptoms of toxicity at 250 to 1000 mg/kg, po administered via gastric gavage and measured daily for 72 hrs; type: organism-based; details: in vivo, dose 250-1000 mg/kg
Rattus norvegicus [17] = assay: Antidiabetic activity in 16 hrs fasted high fat diet/streptozotocin induced diabetic Wistar albino rat model assessed as reduction in blood glucose level at 25 to 50 mg/kg, po pretreated for 30 mins followed by glucose administration and measured after 30 mins by oral glucose tolerance test; type: functional, organism-based; details: dose 25-50 mg/kg, time 60.0 min
[18] = Acute toxicity in male Wistar albino rat assessed as lethargy at 250 to 1000 mg/kg, po administered via gastric gavage and measured daily for 2 weeks; type: organism-based; details: in vivo, 336 h, dose 250-1000 mg/kg
Rattus norvegicus [19] = assay: Antidiabetic activity in high fat diet/streptozotocin induced diabetic Wistar albino rat model assessed as increase in body weight at 10 to 50 mg/kg, po administered once daily and measured for 28 days; type: functional, organism-based; details: dose 10-50 mg/kg, time 28.0 day
Rattus norvegicus [20] = assay: Antidiabetic activity in high fat diet/streptozotocin induced diabetic Wistar albino rat model assessed as reduction in blood glucose level at 50 mg/kg, po administered once daily and measured on day 21 using overnight fasted rat blood by automatic blood glucose meter; type: functional, organism-based; details: time 21.0 day
Rattus norvegicus [21] = assay: Antidiabetic activity in high fat diet/streptozotocin induced diabetic Wistar albino rat model assessed as improvement in pancreatic islet architecture at 10 to 50 mg/kg, po administered once daily for 28 days by H and E staining based microscopic analysis; type: functional, organism-based; details: dose 10-50 mg/kg, time 28.0 day
[22] = Acute toxicity in male Wistar albino rat assessed as symptoms of diarrhea at 250 to 1000 mg/kg, po administered via gastric gavage and measured daily for 2 weeks; type: organism-based; details: in vivo, 336 h, dose 250-1000 mg/kg
[23] = Acute toxicity in male Wistar albino rat assessed as effect on sleeping at 250 to 1000 mg/kg, po administered via gastric gavage and measured daily for 2 weeks; type: organism-based; details: in vivo, 336 h, dose 250-1000 mg/kg
Rattus norvegicus [24] = assay: Antidiabetic activity in high fat diet/streptozotocin induced diabetic Wistar albino rat model assessed as reduction in blood glucose level at 25 to 50 mg/kg, po administered once daily and measured on day 14 using overnight fasted rat blood by automatic blood glucose meter; type: functional, organism-based; details: dose 25-50 mg/kg, time 14.0 day
Rattus norvegicus [25] = assay: Antidiabetic activity in 16 hrs fasted high fat diet/streptozotocin induced diabetic Wistar albino rat model assessed as reduction in blood glucose level at 10 to 50 mg/kg, po pretreated for 30 mins followed by glucose administration and measured after 60 to 120 mins by oral glucose tolerance test; type: functional, organism-based; details: dose 10-50 mg/kg, time 30-150 min
Rattus norvegicus [26] = assay: Antidiabetic activity in high fat diet/streptozotocin induced diabetic Wistar albino rat model assessed as reduction in blood glucose level at 10 to 50 mg/kg, po administered once daily and measured immediately by automatic blood glucose meter; type: functional, organism-based; details: dose 10-50 mg/kg
Alpha-glucosidase [27] = target: T1, Alpha-glucosidase; assay: Inhibition of Saccharomyces cerevisiae alpha-glucosidase using p-nitrophenyl-alpha-D-glucopyranoside as substrate preincubated for 10 mins followed by substrate addition and measured after 20 mins by spectrophotometer; type: protein assay
[28] = target: Alpha-glucosidase (Saccharomyces cerevisiae S288c) (UniProt P53341+P38158+P07265); assay: Potency index, ratio of acarbose IC50 to test compound IC50 for inhibition of Saccharomyces cerevisiae alpha-glucosidase using p-nitrophenyl-alpha-D-glucopyranoside as substrate measured after 20 mins by spectrophotometer; type: protein assay

In the case of `O=C(CSc1nc2ccccc2cc1-c1nc(-c2ccccc2)c(-c2ccccc2)[nH]1)NCc1ccccc1`, the IC50 (Alpha-glucosidase [1]) is reported as 1790 nM.
For `Cc1ccccc1NC(=O)CSc1nc2ccccc2cc1-c1nc(-c2ccccc2)c(-c2ccccc2)[nH]1`, the IC50 (Alpha-glucosidase [1]) was 1500 nM.
`Cc1ccc(NC(=O)CSc2nc3ccccc3cc2-c2nc(-c3ccccc3)c(-c3ccccc3)[nH]2)cc1` showed an IC50 (Alpha-glucosidase [1]) of 1770 nM.
With `O=C(CSc1nc2ccccc2cc1-c1nc(-c2ccccc2)c(-c2ccccc2)[nH]1)Nc1ccccc1Cl` the IC50 (Alpha-glucosidase [1]) was 1950 nM.
In the case of `Cc1ccc(CNC(=O)CSc2nc3ccccc3cc2-c2nc(-c3ccccc3)c(-c3ccccc3)[nH]2)cc1`, the IC50 (Alpha-glucosidase [1]) is reported as 1480 nM.
Work on `Cc1cccc(C)c1NC(=O)CSc1nc2ccccc2cc1-c1nc(-c2ccccc2)c(-c2ccccc2)[nH]1` yielded an IC50 (Alpha-glucosidase [1]) of 1250 nM and a Ki (Alpha-glucosidase [2]) of 1000 nM.
For `C[C@H]1O[C@H](O[C@H]2[C@H](O)[C@@H](O)[C@@H](O[C@H]3[C@H](O)[C@@H](O)C(O)O[C@@H]3CO)O[C@@H]2CO)[C@H](O)[C@@H](O)[C@@H]1N[C@H]1C=C(CO)[C@@H](O)[C@H](O)[C@H]1O` (stereo partly drawn) [ACARBOSE], the Activity (Rattus norvegicus [3]) was “Active”, the Activity (Rattus norvegicus [4]) was “Active” and the Activity (Rattus norvegicus [5]) was 115 mg/dL. The Activity (Rattus norvegicus [6]) was “Active”.
Compound `Cc1cccc(NC(=O)CSc2nc3ccccc3cc2-c2nc(-c3ccccc3)c(-c3ccccc3)[nH]2)c1C` has an IC50 (Alpha-glucosidase [1]) of 2050 nM.
Compound `Cc1c(NC(=O)CSc2nc3ccccc3cc2-c2nc(-c3ccccc3)c(-c3ccccc3)[nH]2)cccc1[N+](=O)[O-]` has an IC50 (Alpha-glucosidase [1]) of 1020 nM and a Ki (Alpha-glucosidase [2]) of 990 nM.
`O=C(CSc1nc2ccccc2cc1-c1nc(-c2ccccc2)c(-c2ccccc2)[nH]1)Nc1ccc2ccccc2c1` gave a Ki (Alpha-glucosidase [7]) of 2200 nM and an IC50 (Alpha-glucosidase [1]) of 1220 nM.
With `CCc1ccc(NC(=O)CSc2nc3ccccc3cc2-c2nc(-c3ccccc3)c(-c3ccccc3)[nH]2)cc1` the IC50 (Alpha-glucosidase [1]) was 960 nM and the Ki (Alpha-glucosidase [2]) was 770 nM.
For `O=C(CSc1nc2ccccc2cc1-c1nc(-c2ccccc2)c(-c2ccccc2)[nH]1)Nc1ccc(Cl)cc1`, the IC50 (Alpha-glucosidase [1]) was 1800 nM.
With `O=C(CSc1nc2ccccc2cc1-c1nc(-c2ccccc2)c(-c2ccccc2)[nH]1)Nc1ccc(F)cc1` the Activity [8] was “Non-Toxic”, the Activity [9] was “Non-Toxic” and the Activity [10] was “Non-Toxic”. The Activity (Rattus norvegicus [11]) was 207.83 mg/dL, the Activity (Rattus norvegicus [12]) was “inactive” and the Activity [13] was “Non-Toxic”. For the same compound, the Ki (Alpha-glucosidase [7]) was 150 nM, the Activity (Rattus norvegicus [14]) was “inactive” and the Activity (Rattus norvegicus [5]) was 127.83 mg/dL. For the same compound, the Activity (Rattus norvegicus [15]) was 242 mg/dL, the Activity [16] was “Non-Toxic” and the Activity (Rattus norvegicus [17]) was “Active”. For the same compound, the Activity [18] was “Non-Toxic”, the Activity (Rattus norvegicus [19]) was “Active” and the Activity (Rattus norvegicus [20]) was “Active”. The Activity (Rattus norvegicus [21]) was “Active”, the Activity [22] was “Non-Toxic” and the Activity [23] was “Non-Toxic”. The IC50 (Alpha-glucosidase [1]) was 180 nM, the Activity (Rattus norvegicus [24]) was “Active” and the Activity (Rattus norvegicus [25]) was “Active”. The Activity (Rattus norvegicus [26]) was “inactive”.
`O=C(CSc1nc2ccccc2cc1-c1nc(-c2ccccc2)c(-c2ccccc2)[nH]1)Nc1cccc(Cl)c1` gave an IC50 (Alpha-glucosidase [1]) of 1850 nM.
With `Cc1cc([N+](=O)[O-])ccc1NC(=O)CSc1nc2ccccc2cc1-c1nc(-c2ccccc2)c(-c2ccccc2)[nH]1` the IC50 (Alpha-glucosidase [1]) was 1530 nM.
`O=C(CSc1nc2ccccc2cc1-c1nc(-c2ccccc2)c(-c2ccccc2)[nH]1)Nc1cccc(Cl)c1Cl` gave an IC50 (Alpha-glucosidase [1]) of 1580 nM.
`O=C(CSc1nc2ccccc2cc1-c1nc(-c2ccccc2)c(-c2ccccc2)[nH]1)Nc1ccc(Br)cc1` gave an IC50 (Alpha-glucosidase [1]) of 1980 nM.
In the case of `O=C(CSc1nc2ccccc2cc1-c1nc(-c2ccccc2)c(-c2ccccc2)[nH]1)NCc1ccc(F)cc1`, the Ki (Alpha-glucosidase [7]) is reported as 1400 nM and the IC50 (Alpha-glucosidase [1]) is reported as 1260 nM.
For `Cc1cccc(C)c1NC(=O)CSc1nc2ccccc2cc1/C=N/NC(=O)c1ccccc1`, the IC50 (Alpha-glucosidase [27]) was 14000 nM.
For `O=C(CSc1nc2ccccc2cc1-c1nc(-c2ccccc2)c(-c2ccccc2)[nH]1)Nc1ccccc1`, the Ratio IC50 [28] was 375 and the IC50 (Alpha-glucosidase [1]) was 2100 nM.
For `COc1ccc2nc3cc(Cl)ccc3c(SCC(=O)Nc3ccc(C)cc3)c2c1`, the IC50 (Alpha-glucosidase [27]) was 80000 nM.
`O=C(CSc1nc2ccccc2cc1-c1nc(-c2ccccc2)c(-c2ccccc2)[nH]1)Nc1ccccc1F` gave an IC50 (Alpha-glucosidase [1]) of 2020 nM.
With `Clc1ccccc1Cn1cc(CSc2nc(-c3ccccc3)c(-c3ccccc3)[nH]2)nn1` the IC50 (Alpha-glucosidase [27]) was 85600 nM.
